Assays:
H. virescens = assay: Modified feeding disruption bioassay on MVP-hydrated meal pads, field strains; format: in vivo, Heliothis virescens; details: for percentage producing 0-2 fecal pellets over 24 h: 0.05 μg MVP per ml diet
Experimental: (§1) Trypan Blue (Direct Blue 14; Matheson Coleman and Bell, Norwood, Ohio) was blended with artificial diet, 20 mg dye per 100 ml diet. Blue diet aliquots were dispensed (100 μl per well) into 8-well microtiter plate strips (Nalge Nunc Int., Napersville, Ill.). The blue dye served as a marker of feeding on the assay diet, with larvae feeding on colored diet producing blue feces which were easily distinguished visually from feces derived from other food sources. Microtiter plate strips containing blue diet were frozen at −80° C. and lyophilized (Bench Top 6, Virtis, Gardiner, N.Y.; cold trap=−70° C., ˜200 mTorr, ambient temperature=23° C.) for a minimum of 24 h in order to form hydratable meal pads. Meal pads were stored in the dark in sealed plastic bags with desiccant prior to use.
(§2) Meal pads were hydrated with aqueous dilutions of the B. thuringiensis CryIAc δ-endotoxin formulation MVP (Mycogen, San Diego, Calif.) at least 1 h prior to the start of assays. Fresh diet aliquots (100 μl) consistently lost 78-84% of their water content by weight during the lyophilization process. Therefore, meal pads were hydrated with 80 μl of MVP in distilled water (treatments) or distilled water only (controls). The insecticide concentrations referenced throughout this paper are in μg MVP per ml of diet, i.e. the final concentration of insecticide in hydrated diet, which is 80% of the concentration of the solution used to hydrate the meal pads. Strip caps (Nunc) were cut into single caps in order to seal wells of the microtiter plate strips individually, which facilitated observation within wells while not allowing neighboring larvae to escape. In order to reduce condensation within the wells and provide larvae with air, caps were punctured twice with a #3 insect pin. Bioassays were conducted at 27±1° C. with a 14:10 (L:D) cycle, and blue fecal pellets were counted at 24 h. Neonates were used in all assays and were exposed to assay diets within 24 h of hatch. The results from each assay are taken from two replicates of each dose, with each replicate consisting of 24 larvae, one larva per well. Control (no dose) treatments were replicated three times. Dead larvae (defined as no movement for 30 s after prodding with a blunt probe) at the assay endpoint (24 h) were discarded and not included in the reported results. For each surviving larva, the number of fecal pellets produced was recorded. Serial dilutions of the MVP formulation were used for meal pad hydration, with separate dilution series prepared for each replicate.
(§3) Following 24 h exposure to diet containing a known concentration of MVP (Mycogen), a surviving larva was designated as a ‘feeder’ if it had produced more than two fecal pellets and as a ‘non-feeder’ otherwise. The cut-off value of two fecal pellets was adopted because this provided the clearest separation between species. Probit analyses were applied to the dichotomized fecal pellet counts in order to compare strains, between and within species, with respect to the feeding disruption response. A probit model was then used to relate the proportion of non-feeders to dose (on a log10 scale). Probit curves were fitted separately for each insect strain, and a NFC50 (non-feeding concentration50; log10 of the MVP concentration resulting in 50% non-feeders) and slope was obtained for H. zea. Also, probit curves were compared across species and among strains within species using PROC GENMOD with LINK=PROBIT (SAS 1993) on the data for all strains combined, and fitting effects for species, strains within species, log10 dose, as well as dose by species and dose by strain within species interactions.
(§4) Probit estimates of the proportion of feeders at the diagnostic concentration for each strain were used to predict the properties of an assay involving exposure of a small number, n, of larvae in individual wells for 24 h to diet containing a diagnostic concentration of the MVP formulation (final MVP concentration in diet 0.04 μg/ml). […]

H. zea [1] = assay: as above; format: in vivo, Helicoverpa zea
Experimental: as §1, §2, §3, §4

H. zea [2] = assay: Feeding disruption assay, CryIAc in Trypan Blue diet (fresh diet); format: in vivo, Helicoverpa zea
Experimental: The blue diet used in the feeding disruption bioassay is an agar based insect meal containing 20 mg of Trypan Blue (Direct Blue 14; Matheson Coleman & Bell, Norwood, Ohio) per 100 ml of standard artificial diet, and containing different concentrations of CryIAc (MVP, Mycogen). Larvae feeding on this colored diet produced blue feces which were easily distinguished by observation from feces derived from other food sources. Assays were conducted in 1-ounce clear plastic cups (Solo Cup Company, Urbana, Ill.; approximately […] in diameter and ¾ inches high) fitted with white cardboard tops, which are routinely used for insect rearing in the inventors' laboratories. The clear plastic allowed for the observation of blue feces without opening the container.
The diagnostic concentration for resistance detection was also investigated for its ability to distinguish Wake susceptible H. virescens from H. zea. In addition, dose response studies were conducted to identify a concentration of Bt that would distinguish resistant YHD2 neonates of H. virescens from H. zea. Dose response studies were duplicated for 25 resistant (HD2) tobacco budworms and 25 bollworms from two generations at different doses of Bt ranging from 0 to 1000 μg CryIAc/ml of blue diet.

[3] = H. zea neonates, 0.032 μg CryIAc/ml diet, 24 hour

For “CryIAc: Bacillus thuringiensis CryIAc δ-endotoxin, commercial formulation MVP (Mycogen), >98.0% δ endotoxin”, the “percentage of insects producing >10 fecal pellets” value (H. virescens; H. virescens field strains pooled, 0.04 μg MVP per ml diet, 24 h) was less than 1%, the “ps, probability of a larva being a feeder, most conservative probit estimate” value (H. virescens; H. virescens strains, diagnostic concentration 0.04 μg/ml, 24 h) was 0.02 and the “percentage producing 0-2 fecal pellets over 24 h” value (H. virescens; Hv Franklin neonates) was 100%. The “feeding response (>2 fecal pellets)” value (H. virescens; Hv Franklin, 0.04 μg MVP per ml diet, 24 h) was 2.1%, the “percentage producing 0-2 fecal pellets over 24 h” value (H. virescens; Hv Johnston neonates) was 95.5% and the “ps, feeding probability” value (H. virescens; Hv Quitman (south Georgia), 0.04 μg MVP per ml diet, 24 h) was 0.15. The “percentage producing >5 fecal pellets” value (H. virescens; Hv Quitman neonates, 0.04 μg MVP per ml diet, 24 h) was 2.2%, the “percentage producing 0-2 fecal pellets over 24 h” value (H. virescens; Hv Quitman neonates) was 95.5% and the “feeding response (>2 fecal pellets)” value (H. virescens; Hv Quitman, 0.04 μg MVP per ml diet, 24 h) was 14.9%. For the same substance, the “percentage producing >5 fecal pellets” value (H. virescens; Hv Washington neonates, 0.04 μg MVP per ml diet, 24 h) was 4.3%, the “percentage producing 0-2 fecal pellets over 24 h” value (H. virescens; Hv Washington neonates) was 97.7% and the “fecal pellets produced per larva (none observed above)” value (H. virescens; all H. virescens field strains, 0.04 μg MVP per ml diet, 24 h) was no more than 11 fecal pellets. For the same substance, the “pr, probability of a larva being a feeder, most conservative probit estimate” value (H. zea [1]; H. zea strains, diagnostic concentration 0.04 μg/ml, 24 h) was 0.80, the “non-feeding response (0-2 fecal pellets)” value (H. zea [1]; Hz Alachua neonates, 1200 μg MVP per ml diet, 24 h) was 87.2% and the “feeding response (>2 fecal pellets)” value (H. zea [1]; Hz Alachua, 0.04 μg MVP per ml diet, 24 h) was 100%. For the same substance, the “percentage of neonates remaining feeders (>2 fecal pellets per larva)” value (H. zea [1]; Hz Alachua, 1200 μg MVP per ml diet, 24 h) was 12.8%, the “percentage producing 0-2 fecal pellets over 24 h” value (H. zea [1]; Hz Baldwin neonates, 400 μg MVP per ml diet) was 97.7% and the “non-feeding response (0-2 fecal pellets)” value (H. zea [1]; Hz Barnwell neonates, 1200 μg MVP per ml diet, 24 h) was 100%. For the same substance, the “feeding response (>2 fecal pellets)” value (H. zea [1]; Hz Barnwell, 0.04 μg MVP per ml diet, 24 h) was 100%, the “percentage producing 0-2 fecal pellets over 24 h” value (H. zea [1]; Hz Harmon neonates, 400 μg MVP per ml diet) was 89.5% and the “pr, feeding probability” value (H. zea [1]; Hz Irwin (south Georgia), 0.04 μg MVP per ml diet, 24 h) was 0.98. The “non-feeding response (0-2 fecal pellets)” value (H. zea [1]; Hz Nueces neonates, 1200 μg MVP per ml diet, 24 h) was 100%, the “percentage producing 0-2 fecal pellets over 24 h” value (H. zea [1]; Hz Washington neonates, 400 μg MVP per ml diet) was 97.6% and the “feeding response (>2 fecal pellets)” value (H. zea [1]; Hz Washington, 0.04 μg MVP per ml diet, 24 h) was 80.4%. The “percentage of larvae producing >6 fecal pellets” value (H. zea [1]; all H. zea larvae assayed, 1200 μg MVP per ml diet, 24 h) was less than 1%, the “percentage producing >15 fecal pellets” value (H. zea [1]; each of Hz Alachua, Hz Barnwell, Hz Baldwin, 0.04 μg MVP per ml diet, 24 h) was greater than 90% and the percentage non-feeders (H. zea [1]; each of three other H. zea field strains, 400 μg MVP per ml diet, 24 h) was “Less than 88.0%”. For the same substance, the non-feeding response (H. zea [1]; three of the six H. zea susceptible field strains, 400 μg MVP per ml hydrated diet) was greater than 89%, the “blue fecal pellets produced per larva” value (H. zea [2]; [3]) was no less than 7 blue fecal pellets and the “percentage producing ≧15 blue fecal pellets” value (H. zea [2]; [3]) was 99%. For the same substance, the “percentage producing no blue feces” value (H. zea [2]; H. zea neonates, 500 μg CryIAc/ml blue diet, 24 hours) was 100% and the “percentage producing 0-2 fecal pellets in 24 h” value (H. zea [2]; laboratory susceptible H. zea colony, 1000 μg MVP per ml diet) was 98.0%.

Source: patent US6517856B1, “Insecticide resistance assay” (priority 1998, dated 2003)
